Laboratory results from ChEMBL document CHEMBL3774353, “Efficacy of peptide nucleic acid and selected conjugates against specific cellular pathologies of amyotrophic lateral sclerosis” (Bioorg Med Chem, 2016).

Molecular target: Superoxide dismutase [Cu-Zn] (Homo sapiens) (UniProt P00441)
Test: Binding affinity to human EGFP-tagged SOD1 A4V mutant mRNA expressed in mouse Neuro2a cells assessed as reduction in cells bearing inclusions at 25 uM measured 72 hrs post transfection by Hoechst33342 staining-based epifluorescence microscopic analysis (reference value: 19 to 21%)
Format: cell-based
Set-up: scale not given: the % may be the effect or the level left

Chain of Superoxide dismutase [Cu-Zn] (Homo sapiens) (P00441 whole entry): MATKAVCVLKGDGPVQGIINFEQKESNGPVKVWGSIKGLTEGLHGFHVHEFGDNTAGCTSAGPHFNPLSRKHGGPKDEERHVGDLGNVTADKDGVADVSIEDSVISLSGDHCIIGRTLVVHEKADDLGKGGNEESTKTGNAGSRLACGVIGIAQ

Compound | Activity [%]
O=C(CS)N[C@@H]1CCCC[C@H]1NC(=O)CS (racemic) | 14
Cc1c(C)c2c(c(C)c1O)CCC(C)(C(=O)NCCN(CC(=O)NCCN(CC(=O)NCCN(CC(=O)NCCN(CC(=O)NCCN(CC(=O)NCCN(CC(=O)NCCN(CC(=O)NCCN(CC(=O)NCCN(CC(N)=O)C(=O)Cn1cnc3c(=O)[nH]c(N)nc31)C(=O)Cn1ccc(N)nc1=O)C(=O)Cn1cnc3c(N)ncnc31)C(=O)Cn1ccc(N)nc1=O)C(=O)Cn1cnc3c(=O)[nH]c(N)nc31)C(=O)Cn1cnc3c(N)ncnc31)C(=O)Cn1ccc(N)nc1=O)C(=O)Cn1cc(C)c(=O)[nH]c1=O)C(=O)Cn1cc(C)c(=O)[nH]c1=O)O2 (centres undefined) | 16
CC(=O)Oc1c(C)c(C)c2c(c1Cn1cc(CCC(=O)NCCN(CC(=O)NCCN(CC(=O)NCCN(CC(=O)NCCN(CC(=O)NCCN(CC(=O)NCCN(CC(=O)NCCN(CC(=O)NCCN(CC(=O)NCCN(CC(N)=O)C(=O)Cn3cnc4c(=O)[nH]c(N)nc43)C(=O)Cn3ccc(N)nc3=O)C(=O)Cn3cnc4c(N)ncnc43)C(=O)Cn3ccc(N)nc3=O)C(=O)Cn3cnc4c(=O)[nH]c(N)nc43)C(=O)Cn3cnc4c(N)ncnc43)C(=O)Cn3ccc(N)nc3=O)C(=O)Cn3cc(C)c(=O)[nH]c3=O)C(=O)Cn3cc(C)c(=O)[nH]c3=O)nn1)CCC(C)(CCCC(C)CCCC(C)CCCC(C)C)O2 (centres undefined) | 17
CCOC(=O)C1(C)CCc2c(Cn3cc(CCC(=O)NCCN(CC(=O)NCCN(CC(=O)NCCN(CC(=O)NCCN(CC(=O)NCCN(CC(=O)NCCN(CC(=O)NCCN(CC(=O)NCCN(CC(=O)NCCN(CC(N)=O)C(=O)Cn4cnc5c(=O)[nH]c(N)nc54)C(=O)Cn4ccc(N)nc4=O)C(=O)Cn4cnc5c(N)ncnc54)C(=O)Cn4ccc(N)nc4=O)C(=O)Cn4cnc5c(=O)[nH]c(N)nc54)C(=O)Cn4cnc5c(N)ncnc54)C(=O)Cn4ccc(N)nc4=O)C(=O)Cn4cc(C)c(=O)[nH]c4=O)C(=O)Cn4cc(C)c(=O)[nH]c4=O)nn3)c(OC(C)=O)c(C)c(C)c2O1 (centres undefined) | 14
